From patent US9586951B2 (FUJIFILM Corporation, priority 2013, dated 2017)

target: T1, ATM (Homo sapiens, UniProt Q13315); experiment: ATM inhibition test (phosphorylation of Chk2 generated by ionizing radiation, AlphaScreen SureFire); format: cell-based; details: ATM inhibitory activity, phosphorylated Chk2 in NCI-H460 cells, ionizing radiation 8Gy, 1 hour after test compound treatment
T1 construct: detecting phosphorylation of Chk2 in a human non-small cell lung cancer cell line NCI-H460 (ATCC company); host or cells: NCI-H460 human non-small cell lung cancer cells
Experimental: ATM inhibitory effects of a test compound were measured by detecting phosphorylation of Chk2 in a human non-small cell lung cancer cell line NCI-H460 (ATCC company). The level of phosphorylated Chk2 generated by an ionizing radiation was measured using AlphaScreen SureFire (TGR Biosciences).
The cells were seeded by 40000 cells per well in 96-well CellBIND® plates (Corning International Inc.), and incubated at 37° C. overnight in 5% CO2. […] 1 hour after a test compound treatment, half of the plates were irradiated with ionizing radiation 8Gy (Faxitron Bioptics, LLC, RX-650 type). The plates irradiated with ionizing radiation and the plates not being irradiated with ionizing radiation were incubated at 37° C. for 1 hour in 5% CO2. […] Subsequent operations were performed according to the instruction book of AlphaScreen SureFire. […] The inhibition ratio was calculated by the following equation. Inhibition ratio (%)=((signal of drug untreated wells in the plates irradiated with ionizing radiation−signal of drug treated wells in the plates irradiated with ionizing radiation)/(signal of drug untreated wells in the plates irradiated with ionizing radiation−signal of drug untreated wells in the plates not being irradiated with ionizing radiation))×100

T1 sequence (Q13315 whole entry): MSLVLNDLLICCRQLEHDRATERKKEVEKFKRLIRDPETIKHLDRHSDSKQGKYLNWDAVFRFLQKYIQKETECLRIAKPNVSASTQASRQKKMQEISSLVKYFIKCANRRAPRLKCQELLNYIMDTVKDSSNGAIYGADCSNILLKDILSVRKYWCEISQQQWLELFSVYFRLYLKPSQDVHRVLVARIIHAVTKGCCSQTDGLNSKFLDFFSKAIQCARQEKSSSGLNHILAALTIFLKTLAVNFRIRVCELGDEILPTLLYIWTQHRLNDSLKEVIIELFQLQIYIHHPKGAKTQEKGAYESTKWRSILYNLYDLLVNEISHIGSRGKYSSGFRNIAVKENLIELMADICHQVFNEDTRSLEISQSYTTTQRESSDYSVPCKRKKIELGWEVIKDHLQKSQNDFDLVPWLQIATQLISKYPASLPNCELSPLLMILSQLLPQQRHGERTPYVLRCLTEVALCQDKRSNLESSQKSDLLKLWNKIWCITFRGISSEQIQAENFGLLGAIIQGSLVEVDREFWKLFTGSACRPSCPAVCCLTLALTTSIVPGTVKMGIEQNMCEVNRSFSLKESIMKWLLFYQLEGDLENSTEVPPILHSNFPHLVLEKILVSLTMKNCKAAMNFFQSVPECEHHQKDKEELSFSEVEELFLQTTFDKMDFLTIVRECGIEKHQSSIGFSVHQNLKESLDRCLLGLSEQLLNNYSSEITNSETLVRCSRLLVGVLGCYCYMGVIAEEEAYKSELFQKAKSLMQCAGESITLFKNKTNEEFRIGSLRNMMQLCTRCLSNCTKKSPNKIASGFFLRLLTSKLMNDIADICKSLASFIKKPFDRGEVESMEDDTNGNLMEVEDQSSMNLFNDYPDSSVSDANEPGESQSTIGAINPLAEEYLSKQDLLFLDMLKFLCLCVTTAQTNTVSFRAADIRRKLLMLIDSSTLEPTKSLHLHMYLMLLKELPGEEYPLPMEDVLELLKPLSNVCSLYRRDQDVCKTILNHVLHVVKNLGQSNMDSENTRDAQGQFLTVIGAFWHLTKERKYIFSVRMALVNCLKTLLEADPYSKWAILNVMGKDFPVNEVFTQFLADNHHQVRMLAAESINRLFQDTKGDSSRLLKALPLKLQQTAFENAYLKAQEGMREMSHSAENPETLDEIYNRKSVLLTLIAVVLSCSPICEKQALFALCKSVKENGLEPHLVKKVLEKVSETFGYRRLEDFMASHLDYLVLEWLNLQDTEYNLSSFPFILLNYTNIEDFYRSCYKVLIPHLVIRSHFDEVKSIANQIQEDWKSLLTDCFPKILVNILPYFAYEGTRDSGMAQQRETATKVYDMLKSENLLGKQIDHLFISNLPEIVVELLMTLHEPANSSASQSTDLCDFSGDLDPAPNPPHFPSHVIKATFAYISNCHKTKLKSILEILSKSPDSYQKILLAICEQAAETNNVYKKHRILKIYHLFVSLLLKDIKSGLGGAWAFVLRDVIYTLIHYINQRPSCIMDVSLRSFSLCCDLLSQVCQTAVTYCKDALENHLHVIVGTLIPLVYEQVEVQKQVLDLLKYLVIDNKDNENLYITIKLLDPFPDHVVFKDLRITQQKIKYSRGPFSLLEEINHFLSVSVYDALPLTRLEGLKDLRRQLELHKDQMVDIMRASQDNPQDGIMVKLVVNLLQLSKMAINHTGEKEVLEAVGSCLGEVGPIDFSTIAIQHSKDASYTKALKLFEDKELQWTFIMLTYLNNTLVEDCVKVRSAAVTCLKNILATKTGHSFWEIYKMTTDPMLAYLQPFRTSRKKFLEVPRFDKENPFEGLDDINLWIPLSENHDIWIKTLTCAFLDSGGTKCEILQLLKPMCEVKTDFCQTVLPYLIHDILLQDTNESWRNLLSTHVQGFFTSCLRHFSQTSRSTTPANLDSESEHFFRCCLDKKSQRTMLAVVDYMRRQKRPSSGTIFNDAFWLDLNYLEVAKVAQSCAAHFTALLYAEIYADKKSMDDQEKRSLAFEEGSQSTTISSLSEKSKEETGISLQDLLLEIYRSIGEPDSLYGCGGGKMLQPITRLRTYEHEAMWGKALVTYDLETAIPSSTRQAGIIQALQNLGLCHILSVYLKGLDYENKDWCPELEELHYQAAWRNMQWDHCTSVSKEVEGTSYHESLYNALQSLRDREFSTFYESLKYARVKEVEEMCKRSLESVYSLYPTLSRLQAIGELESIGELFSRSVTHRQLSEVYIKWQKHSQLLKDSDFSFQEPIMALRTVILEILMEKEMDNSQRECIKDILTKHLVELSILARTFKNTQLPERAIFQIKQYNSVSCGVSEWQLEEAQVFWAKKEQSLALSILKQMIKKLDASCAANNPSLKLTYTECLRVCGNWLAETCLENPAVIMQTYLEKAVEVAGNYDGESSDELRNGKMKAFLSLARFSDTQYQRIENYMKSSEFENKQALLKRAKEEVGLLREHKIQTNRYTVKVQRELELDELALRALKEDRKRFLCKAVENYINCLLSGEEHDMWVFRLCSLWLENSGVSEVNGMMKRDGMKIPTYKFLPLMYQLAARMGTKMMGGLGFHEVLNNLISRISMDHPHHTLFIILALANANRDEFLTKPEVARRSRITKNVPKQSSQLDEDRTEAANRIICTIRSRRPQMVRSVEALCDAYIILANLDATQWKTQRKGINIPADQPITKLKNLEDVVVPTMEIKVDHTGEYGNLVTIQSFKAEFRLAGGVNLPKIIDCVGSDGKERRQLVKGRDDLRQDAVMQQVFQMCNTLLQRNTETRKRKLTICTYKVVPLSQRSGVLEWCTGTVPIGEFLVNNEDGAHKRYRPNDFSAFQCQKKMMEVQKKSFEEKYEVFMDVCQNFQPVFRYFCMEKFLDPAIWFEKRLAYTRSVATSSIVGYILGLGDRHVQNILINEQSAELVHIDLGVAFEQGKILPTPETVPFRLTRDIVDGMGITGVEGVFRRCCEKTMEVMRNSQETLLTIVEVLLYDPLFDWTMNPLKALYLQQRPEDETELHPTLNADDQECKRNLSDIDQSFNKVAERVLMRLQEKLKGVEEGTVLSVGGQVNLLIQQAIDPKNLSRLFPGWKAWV

Row | Structure (SMILES) | IC50 [nM]
1 | O=c1cc(N2CCOCC2)cc(-c2cccc3c2Sc2ccc(N4CC4CF)cc2S3)[nH]1 (stereo not drawn) [Example 1-40, 6-(7-(2-(fluoromethyl)aziridin-1-yl)thianthren-1-yl)-4-morpholinopyridin-2(1H)-one] | 100 to 500

same assay, conditions: phosphorylated Chk2 in NCI-H460 cells, ionizing radiation 8Gy, 1 hour after test compound treatment; read-out: ATM inhibitory activity

Row | Structure (SMILES) | IC50 [nM]
2 | O=c1cc(N2CCOCC2)cc(-c2cccc3c2Sc2ccc(NCc4ccncc4)cc2C3)[nH]1 [Example 3-8-2, 4-Morpholino-6-(7-((pyridin-4-ylmethyl)amino)-9H-thioxanthen-4-yl)pyridin-2(1H)-one] | 500 to 2000
3 | Cc1cc(CNc2ccc3c(c2)Sc2cccc(-c4cc(N5CCOCC5)cc(=O)[nH]4)c2O3)ccn1 [Example 4-4-3, 6-(8-(((2-Methylpyridin-4-yl)methyl)amino)phenoxathiin-4-yl)-4-morpholino pyridin-2 (1H)-one] | 100 to 500
4 | COC1CCN(CCNc2ccc3c(c2)Sc2cccc(-c4cc(N5CCOCC5)cc(=O)[nH]4)c2S3)CC1 [Example 1-10-15, 6-(7-((2-(4-Methoxypiperidin-1-yl)ethyl)amino)thianthren-1-yl)-4-morpholino pyridin-2(1H)-one] | 100 to 500
5 | O=c1cc(N2CCOCC2)cc(-c2cccc3c2Oc2ccc(NC4CCN(CCc5ccccc5Cl)CC4)cc2C3)[nH]1 [Example 2-30-9, 6-(7-((1-(2-Chlorophenethyl)piperidin-4-yl)amino)-9H-xanthen-4-yl)-4-morpholino pyridin-2(1H)-one] | 100 to 500
6 | O=c1cc(N2CCOCC2)cc(-c2cccc3c2Sc2ccc(NCc4ccnc(N5CCOCC5)n4)cc2S3)[nH]1 [Example 1-12-41, 4-Morpholino-6-(7-(((2-morpholinopyrimidin-4-yl)methyl)amino)thianthren-1-yl)pyridin-2(1H)-one] | 100 to 500
7 | Cc1csc(CNc2ccc3c(c2)Cc2cccc(-c4cc(N5CCOCC5)cc(=O)[nH]4)c2O3)n1 [Example 2-14-42, 6-(7-(((4-Methylthiazol-2-yl)methyl)amino)-9H-xanthen-4-yl)-4-morpholino pyridin-2(1H)-one] | 100 to 500
8 | O=c1cc(N2CCOCC2)cc(-c2cccc3c2Oc2ccc(NC4CCN(Cc5ccc(C(F)(F)F)nc5)CC4)cc2C3)[nH]1 [Example 2-28-15, 4-Morpholino-6-(7-((1-((6-(trifluoromethyl)pyridin-3-yl)methyl)piperidin-4-yl)amino)-9H-xanthen-4-yl) pyridin-2(1H)-one] | 500 to 2000
9 | Cc1ccc(C(C)Nc2ccc3c(c2)Sc2cccc(-c4cc(N5CCOCC5)cc(=O)[nH]4)c2S3)nc1 (single isomer, unassigned) [Example 1-12-143-2, 6-(7-((1-(5-methylpyridin-2-yl)ethyl)amino)thianthren-1-yl)-4-morpholinopyridin-2(1H)-one] | 100 to 500
10 | Cc1cccc(C(CN)Nc2ccc3c(c2)Sc2cccc(-c4cc(N5CCOCC5)cc(=O)[nH]4)c2S3)n1 (stereo not drawn) [Example 1-19-2, 6-(7-((2-Amino-1-(6-methylpyridin-2-yl)ethyl)amino)thianthren-1-yl)-4-morpholinopyridin-2(1H)-one] | 100 to 500
11 | COCCN1CCC(Nc2ccc3c(c2)Cc2cccc(-c4cc(N5CCOCC5)cc(=O)[nH]4)c2O3)CC1 [Example 2-29, 6-(7-((1-(2-Methoxyethyl)piperidin-4-yl)amino)-9H-xanthen-4-yl)-4-morpholinopyridin-2(1H)-one] | 500 to 2000
12 | COC(=O)CCCCN1CCC(Nc2ccc3c(c2)Cc2cccc(-c4cc(N5CCOCC5)cc(=O)[nH]4)c2O3)CC1 [Example 2-30-16, Methyl 5-(4-((5-(4-morpholino-6-oxo-1,6-dihydropyridin-2-yl)-9H-xanthen-2-yl)amino)piperidin-1-yl)pentanoate] | 100 to 500

Other lines, results leading:

Row | IC50 [nM] | Structure (SMILES)
13 | 500 to 2000 | CN(C)[C@H]1CC[C@H](N(C)c2ccc3c(c2)Cc2cccc(-c4cc(N5CCOCC5)cc(=O)[nH]4)c2O3)CC1 [Example 2-10, 6-(7-(((Trans)-4-(dimethylamino)cyclohexyl)(methyl)amino)-9H-xanthen-4-yl)-4-morpholinopyridin-2(1H)-one]
14 | 100 to 500 | O=c1cc(N2CCOCC2)cc(-c2cccc3c2Oc2ccc(NCc4cncc(-n5cncn5)c4)cc2C3)[nH]1 [Example 2-2-59, 6-(7-(((5-(1H-1,2,4-Triazol-1-yl)pyridin-3-yl)methyl)amino)-9H-xanthen-4-yl)-4-morpholino pyridin-2(1H)-one]
15 | 100 to 500 | COc1cncc(CNc2ccc3c(c2)Cc2ccnc(-c4cc(N5CCOCC5)cc(=O)[nH]4)c2O3)c1 [Example 2-41-1, 6-(7-(((5-Methoxypyridin-3-yl)methyl)amino)-5H-chromeno[2,3-c]pyridin-1-yl)-4-morpholinopyridin-2(1H)-one]
16 | 100 to 500 | O=c1cc(N2CCOCC2)cc(-c2cccc3c2Oc2ccc(NCc4cccnc4)cc2C3)[nH]1 [Example 2-3-1, 4-Morpholino-6-(7-((pyridin-3-ylmethyl)amino)-9H-xanthen-4-yl)pyridin-2(1H)-one]
17 | 100 to 500 | O=c1cc(N2CCOCC2)cc(-c2cccc3c2Oc2ccc(NCc4ccc(N5CCOCC5)nc4)cc2C3)[nH]1 [Example 2-2-6, 4-Morpholino-6-(7-(((6-morpholinopyridin-3-yl)methyl)amino)-9H-xanthen-4-yl)pyridin-2(1H)-one]
18 | 500 to 2000 | O=c1cc(N2CCOCC2)cc(-c2cccc3c2Sc2ccc(NCc4cnccn4)cc2C3)[nH]1 [Example 3-8-5, 4-Morpholino-6-(7-((pyrazin-2-ylmethyl)amino)-9H-thioxanthen-4-yl)pyridin-2 (1H)-one]
19 | 500 to 2000 | COCc1ccc(CCN2CCC(Nc3ccc4c(c3)Cc3cccc(-c5cc(N6CCOCC6)cc(=O)[nH]5)c3O4)CC2)cc1 [Example 2-30-20, 6-(7-((1-(4-(Methoxymethyl)phenethyl)piperidin-4-yl)amino)-9H-xanthen-4-yl)-4-morpholino pyridin-2(1H)-one]
20 | 100 to 500 | O=c1cc(N2CCOCC2)cc(-c2nccc3c2Oc2ccc(NCc4cncc(Cl)c4)cc2C3)[nH]1 [Example 2-41-9, 6-(7-(((5-Chloropyridin-3-yl)methyl)amino)-5H-chromeno [2,3-c]pyridin-1-yl)-4-morpholino pyridin-2(1H)-one]
21 | < 100 | Cc1ccnc(C(C)Nc2ccc3c(c2)Cc2cccc(-c4cc(N5CCOCC5)cc(=O)[nH]4)c2O3)c1 (single isomer, unassigned) [Example 2-14-93-2, 6-(7-((1-(4-methylpyridin-2-yl)ethyl)amino)-9H-xanthen-4-yl)-4-morpholinopyridin-2(1H)-one]
22 | 500 to 2000 | CNCCC(Nc1ccc2c(c1)Sc1cccc(-c3cc(N4CCOCC4)cc(=O)[nH]3)c1S2)c1cnc(C)cn1 (stereo not drawn) [Example 1-20-11, 6-(7-((3-(Methylamino)-1-(5-methylpyrazin-2-yl)propyl)amino)thianthren-1-yl)-4-morpholino pyridin-2 (1H)-one]
23 | 500 to 2000 | Cn1c(CNc2ccc3c(c2)Cc2cccc(-c4cc(N5CCOCC5)cc(=O)[nH]4)c2O3)cccc1=O [Example 2-2-47, 1-Methyl-6-(((5-(4-morpholino-6-oxo-1,6-dihydropyridin-2-yl)-9H-xanthen-2-yl)amino)methyl) pyridin-2(1H)-one]
24 | 500 to 2000 | Nc1ccc2c(c1)Cc1cc(F)cc(-c3cc(N4CCOCC4)cc(=O)[nH]3)c1O2 [Example 2-48-1, 6-(7-amino-2-fluoro-9H-xanthen-4-yl)-4-morpholinopyridin-2(1H)-one]
25 | 100 to 500 | Cc1ccc(C2(Nc3ccc4c(c3)Sc3cccc(-c5cc(N6CCOCC6)cc(=O)[nH]5)c3S4)CCC2)nc1 [Example 1-50-3, 6-(7-((1-(5-Methylpyridin-2-yl)cyclobutyl)amino)thianthren-1-yl)-4-morpholino pyridin-2(1H)-one]
26 | 100 to 500 | CCOCC(Nc1ccc2c(c1)Sc1cccc(-c3cc(N4CCOCC4)cc(=O)[nH]3)c1S2)c1ccc(C)cn1 (stereo not drawn) [Example 1-12-101, 6-(7-((2-Ethoxy-1-(5-methylpyridin-2-yl)ethyl)amino)thianthren-1-yl)-4-morpholino pyridin-2(1H)-one]
27 | < 100 | COCCN1CCCC(Nc2ccc3c(c2)Sc2cccc(-c4cc(N5CCOCC5)cc(=O)[nH]4)c2S3)C1 (stereo not drawn) [Example 1-26-2, 6-(7-((1-(2-Methoxyethyl)piperidin-3-yl)amino)thianthren-1-yl)-4-morpholinopyridin-2(1H)-one]
28 | 500 to 2000 | O=c1cc(N2CCOCC2)cc(-c2cccc3c2Oc2ccc(NC4CCN(CCC5CCCCC5)CC4)cc2C3)[nH]1 [Example 2-30-5, 6-(7-((1-(2-Cyclohexylethyl)piperidin-4-yl)amino)-9H-xanthen-4-yl)-4-morpholino pyridin-2 (1H)-one]
29 | 100 to 500 | O=c1cc(N2CCOCC2)cc(-c2cccc3c2Sc2ccc(NC4CCN(C5CCCC5)C4)cc2S3)[nH]1 (stereo not drawn) [Example 1-24-12, 6-(7-((1-Cyclopentylpyrrolidin-3-yl)amino)thianthren-1-yl)-4-morpholino pyridin-2(1H)-one]
30 | 100 to 500 | CC(C)(C)OC(=O)N1CCC(Nc2ccc3c(c2)Cc2cccc(-c4cc(N5CCOCC5)cc(=O)[nH]4)c2O3)CC1 [Example 2-3-12, tert-Butyl 4-((5-(4-morpholino-6-oxo-1,6-dihydropyridin-2-yl)-9H-xanthen-2-yl)amino) piperidine-1-carboxylate]
